Source: PubChem BioAssay AID330 (DTP/NCI, 2004)
Values joined by “and” are separate entries in the source; they are usually repeats but may differ in a detail not shown here. Equal values may be shown once. Toxic doses and inconclusive results are not listed. Peptide text beside a SMILES is read from it. * marks the point of attachment. Cbz = O=C(OCc1ccccc1)*

Test system: P388 leukemia ip, CD2F1 mice, survival T/C
Test: NCI In Vivo Anticancer Drug Screen. Data for tumor model P388 Leukemia (intraperitoneal) in CD2F1 (CDF1) mice
Settings: endpoint: median survival time, higher = longer survival
Summary of the method: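 Mice carrying the transplanted tumor received test compound or vehicle. Survival was recorded in each group, and the value is the treated-group measurement divided by that of the vehicle-treated control group.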

[1] = dose: 25.0 mg/kg/injection, schedule: Q01DX009 (ip), vehicle: saline with Tween-80
[2] = dose: 50.0 mg/kg/injection, schedule: Q01DX009 (ip), vehicle: saline with Tween-80
[3] = dose: 100.0 mg/kg/injection, schedule: Q01DX009 (ip), vehicle: saline with Tween-80
[4] = dose: 200.0 mg/kg/injection, schedule: Q01DX009 (ip), vehicle: saline with Tween-80
[5] = dose: 50.0 mg/kg/injection, schedule: Q01DX009 (ip), vehicle: saline
[6] = dose: 100.0 mg/kg/injection, schedule: Q01DX009 (ip), vehicle: saline
[7] = dose: 200.0 mg/kg/injection, schedule: Q01DX009 (ip), vehicle: saline

## Nc1nc2c(ccc3ccccc32)s1
[1]
  T/C: 115 % of control
[2]
  T/C: 102 % of control and 108 % of control and 97 % of control
[3]
  T/C: 100 % of control and 110 % of control and 93 % of control
[4]
  T/C: 103 % of control and 108 % of control and 93 % of control

## CCN(c1ccccc1)c1nsc(Cl)n1
[2]
  T/C: 101 % of control
[3]
  T/C: 104 % of control
[4]
  T/C: 104 % of control

## COC(=O)/C=C/N1CCCC1
[1]
  T/C: 101 % of control
[2]
  T/C: 108 % of control
[3]
  T/C: 101 % of control
[4]
  T/C: 92 % of control

## CN1COC(OC2OCN(C)CC2(C)C)C(C)(C)C1 (stereo not drawn)
[3]
  T/C: 160 % of control

## NC(=O)C1CCCN(C2OC(COP(=O)(O)OP(=O)(O)OCC3OC(n4cnc5c(=O)[nH]c(N)nc54)C(O)C3O)C(O)C2O)C1 (stereo not drawn)
dose: 50.0 mg/kg/injection, schedule: Q01DX005 (ip), vehicle: saline with Tween-80
  T/C: 100 % of control
dose: 100.0 mg/kg/injection, schedule: Q01DX005 (ip), vehicle: saline with Tween-80
  T/C: 104 % of control
dose: 200.0 mg/kg/injection, schedule: Q01DX005 (ip), vehicle: saline with Tween-80
  T/C: 100 % of control

## CC/C(=N/NS(=O)(=O)c1ccc(C)cc1)c1ccc(C)c(C)c1
[5]
  T/C: 98 % of control
[6]
  T/C: 90 % of control
[7]
  T/C: 104 % of control

## c1ccc(Nc2ccc(CN3CCOCC3)cc2)cc1
dose: 60.0 mg/kg/injection, schedule: Q01DX005 (ip), vehicle: Klucel (hydroxypropylcellulose) (HPC)
  T/C: 105 % of control
dose: 120.0 mg/kg/injection, schedule: Q01DX005 (ip), vehicle: Klucel (hydroxypropylcellulose) (HPC)
  T/C: 96 % of control
dose: 240.0 mg/kg/injection, schedule: Q01DX005 (ip), vehicle: Klucel (hydroxypropylcellulose) (HPC)
  T/C: 88 % of control

## O=C(c1ccccc1)C1OC1c1ccccc1 (stereo not drawn)
[2]
  T/C: 104 % of control
[3]
  T/C: 105 % of control and 97 % of control
[4]
  T/C: 103 % of control and 114 % of control
dose: 400.0 mg/kg/injection, schedule: Q01DX009 (ip), vehicle: saline with Tween-80
  T/C: 109 % of control and 123 % of control
dose: 600.0 mg/kg/injection, schedule: Q01DX009 (ip), vehicle: saline with Tween-80
  T/C: 87 % of control

## CN1COc2ccc3ccccc3c2C1
dose: 25.0 mg/kg/injection, schedule: Q01DX009 (ip), vehicle: saline
  T/C: 101 % of control
[5]
  T/C: 98 % of control
[6]
  T/C: 106 % of control

## Nc1nc(N)c2c(Cl)c(CNc3ccc(Cl)c(Cl)c3)ccc2n1
dose: 0.18 mg/kg/injection, schedule: Q01DX009 (ip), vehicle: saline with Tween-80
  T/C: 97 % of control
dose: 0.37 mg/kg/injection, schedule: Q01DX009 (ip), vehicle: saline with Tween-80
  T/C: 102 % of control
dose: 0.75 mg/kg/injection, schedule: Q01DX009 (ip), vehicle: saline with Tween-80
  T/C: 99 % of control
dose: 1.5 mg/kg/injection, schedule: Q01DX009 (ip), vehicle: saline with Tween-80
  T/C: 99 % of control

## CC(C)C(=O)CC(=O)CCC(=O)Nc1cccc(Cl)c1
dose: 60.0 mg/kg/injection, schedule: Q01DX005 (ip), vehicle: saline with Tween-80
  T/C: 105 % of control
dose: 120.0 mg/kg/injection, schedule: Q01DX005 (ip), vehicle: saline with Tween-80
  T/C: 102 % of control
dose: 240.0 mg/kg/injection, schedule: Q01DX005 (ip), vehicle: saline with Tween-80
  T/C: 107 % of control

## CSc1ccc(OC(=O)Nc2ccc(Cl)c(Cl)c2)c(C)c1
dose: 50.0 mg/kg/injection, schedule: Q01DX009 (ip), vehicle: saline + alcohol
  T/C: 87 % of control
dose: 100.0 mg/kg/injection, schedule: Q01DX009 (ip), vehicle: saline + alcohol
  T/C: 87 % of control
dose: 200.0 mg/kg/injection, schedule: Q01DX009 (ip), vehicle: saline + alcohol
  T/C: 95 % of control

## CCCCCCC(C)OC(=O)OCCOCCOC(=O)OC(C)C(=O)OCCCC (stereo not drawn)
dose: 60.0 mg/kg/injection, schedule: Q01DX005 (ip), vehicle: saline
  T/C: 100 % of control
dose: 120.0 mg/kg/injection, schedule: Q01DX005 (ip), vehicle: saline
  T/C: 94 % of control
dose: 240.0 mg/kg/injection, schedule: Q01DX005 (ip), vehicle: saline
  T/C: 100 % of control

## CN(C)c1cc2c(nn1)Nc1ccccc1S2
[2]
  T/C: 96 % of control
[3]
  T/C: 96 % of control
[4]
  T/C: 90 % of control

## CC(NC(=O)OCc1ccccc1)C(=O)NC(C(N)=O)C(C)C (stereo not drawn) (Cbz-Ala-Val-NH2; configuration not given here)
dose: 12.5 mg/kg/injection, schedule: Q01DX005 (ip), vehicle: Klucel (hydroxypropylcellulose) (HPC)
  T/C: 89 % of control
dose: 25.0 mg/kg/injection, schedule: Q01DX005 (ip), vehicle: Klucel (hydroxypropylcellulose) (HPC)
  T/C: 100 % of control
dose: 200.0 mg/kg/injection, schedule: Q01DX005 (ip), vehicle: Klucel (hydroxypropylcellulose) (HPC)
  T/C: 86 % of control

## O=C1/C(=C/c2ccc3c(c2)OCO3)SC(=S)N1c1ccc(Cl)c(Cl)c1
dose: 50.0 mg/kg/injection, schedule: Q01DX005 (ip), vehicle: Klucel (hydroxypropylcellulose) (HPC)
  T/C: 103 % of control
dose: 100.0 mg/kg/injection, schedule: Q01DX005 (ip), vehicle: Klucel (hydroxypropylcellulose) (HPC)
  T/C: 100 % of control

## CC(C)(C)C(=O)CP(=O)(O)O
[5]
  T/C: 95 % of control and 100 % of control
[6]
  T/C: 104 % of control and 97 % of control
[7]
  T/C: 95 % of control and 101 % of control
